Measured values reported in the NIST ThermoML archive (doi:10.1016/j.fluid.2017.09.005).

Experiment: xn = mol fraction of the nth substance listed
Conditions: Liquid; for mass density: Vibrating tube method

CO [methanol] + O
viscosity [mPa·s], Pressure drop in straight capillary
Conditions | x1 = 0.1 | x1 = 0.2 | x1 = 0.3 | x1 = 0.4 | x1 = 0.6 | x1 = 0.8 | x1 = 1
523.2 K, 20000 kPa | 0.116 | 0.112 | 0.108 | 0.102 | 0.09 | 0.079 | 0.07
523.2 K, 30000 kPa | 0.118 | 0.117 | 0.114 | 0.11 | 0.1 | 0.09 | 0.08
523.2 K, 40000 kPa | 0.121 | 0.121 | 0.119 | 0.115 | 0.107 | 0.098 | 0.089
573.2 K, 20000 kPa | 0.084 | 0.08 | 0.074 | 0.067 | 0.054 | 0.045 | 0.042
573.2 K, 30000 kPa | 0.089 | 0.085 | 0.078 | 0.078 | 0.072 | 0.065 | 0.063
573.2 K, 40000 kPa | 0.094 | 0.091 | 0.087 | 0.084 | 0.075 | 0.069 | 0.065
618.2 K, 20000 kPa | 0.06 | 0.035 | 0.026 | 0.025 | 0.027 | 0.027 | 0.029
618.2 K, 30000 kPa | 0.071 | 0.065 | 0.058 | 0.052 | 0.047 | 0.044 | 0.043
618.2 K, 40000 kPa | 0.078 | 0.073 | 0.069 | 0.065 | 0.059 | 0.055 | 0.053

mass density [kg/m3]
Conditions | x1 = 0.1 | x1 = 0.2 | x1 = 0.3 | x1 = 0.4 | x1 = 0.6 | x1 = 0.8 | x1 = 1
523.2 K, 20000 kPa | 767.8 | 724.7 | 686.4 | 652.8 | 597.1 | 552.1 | 517.5
523.2 K, 30000 kPa | 781.4 | 740.7 | 705.9 | 677 | 628.4 | 591.4 | 563.57
523.2 K, 40000 kPa | 791.9 | 754.4 | 722.3 | 694.7 | 650.9 | 618.2 | 593.3
573.2 K, 20000 kPa | 674.5 | 619.8 | 569.3 | 522.3 | 439.6 | 380.5 | 345.3
573.2 K, 30000 kPa | 696.2 | 650.4 | 610.2 | 575.5 | 520.4 | 482.3 | 457.63
573.2 K, 40000 kPa | 714.3 | 673.1 | 638 | 608 | 562.4 | 530.6 | 511
618.2 K, 20000 kPa | 497.6 | 299.3 | 208.9 | 198.2 | 198.4 | 203.9 | 210.5
618.2 K, 30000 kPa | 586 | 524.1 | 473.1 | 430.4 | 381.7 | 360.2 | 350.4
618.2 K, 40000 kPa | 624.9 | 578.5 | 544.1 | 512 | 470.3 | 446.2 | 427.7

CCCO [propan-1-ol] + O
viscosity [mPa·s], Capillary tube (Ostwald / Ubbelohde) method
Conditions | x1 = 0.1 | x1 = 0.2 | x1 = 0.3 | x1 = 0.4 | x1 = 0.6 | x1 = 0.8 | x1 = 1
523.2 K, 20000 kPa | 0.131 | 0.129 | 0.122 | 0.121 | 0.117 | 0.114 | 0.115
523.2 K, 30000 kPa | 0.138 | 0.139 | 0.134 | 0.134 | 0.132 | 0.13 | 0.134
523.2 K, 40000 kPa | 0.138 | 0.146 | 0.145 | 0.146 | 0.146 | 0.146 | 0.15
573.2 K, 20000 kPa | 0.088 | 0.082 | 0.076 | 0.073 | 0.07 | 0.071 | 0.073
573.2 K, 30000 kPa | 0.092 | 0.09 | 0.085 | 0.084 | 0.082 | 0.083 | 0.085
573.2 K, 40000 kPa | 0.098 | 0.098 | 0.096 | 0.094 | 0.095 | 0.097 | 0.098
618.2 K, 20000 kPa | 0.056 | 0.042 | 0.04 | 0.042 | 0.047 | 0.052 | 0.057
618.2 K, 30000 kPa | 0.077 | 0.07 | 0.066 | 0.065 | 0.066 | 0.07 | 0.073
618.2 K, 40000 kPa | 0.086 | 0.082 | 0.079 | 0.079 | 0.08 | 0.084 | 0.087

mass density [kg/m3]
Conditions | x1 = 0.1 | x1 = 0.2 | x1 = 0.3 | x1 = 0.4 | x1 = 0.6 | x1 = 0.8 | x1 = 1
523.2 K, 20000 kPa | 733.5 | 682.3 | 648 | 624.3 | 596 | 582.1 | 575.3
523.2 K, 30000 kPa | 749.8 | 702.6 | 672.3 | 651 | 626.2 | 613.3 | 606.8
523.2 K, 40000 kPa | 761.7 | 718.6 | 689.7 | 670.3 | 647.5 | 635.6 | 629.3
573.2 K, 20000 kPa | 637.8 | 576.7 | 538 | 513.7 | 492.5 | 489.6 | 494.3
573.2 K, 30000 kPa | 664.2 | 614.7 | 583 | 564.2 | 545.3 | 540.2 | 540.6
573.2 K, 40000 kPa | 685.8 | 640.9 | 613.2 | 596.3 | 578.8 | 572.6 | 572.1
618.2 K, 20000 kPa | 430.7 | 324.4 | 311.8 | 325.6 | 360.4 | 393.7 | 419.4
618.2 K, 30000 kPa | 557.7 | 504.6 | 479.5 | 469.8 | 469.3 | 480.8 | 491.7
618.2 K, 40000 kPa | 603.6 | 561.4 | 539.6 | 529 | 523.2 | 528 | 534.1
